Bridge positions count the residues as written; N and C are the ends. Ends that are not written are not given here.
Experiments:
[1] = Kinetics of amyloid formation monitored by ThT fluorescence; type: physicochemical; details: 25 μM peptide, 40 μM ThT, 20 mM Tris-HCl pH 7.4, 25°C, no agitation, nonbinding surface 96-well plate, read every 10 min, lag time = T50 - 2/k, mean ± S.D. of at least six assays
Protocol: Aggregation mixtures were prepared by dissolving the lyophilized peptide at a concentration of 50 μM in 20 mM Tris-HCl, pH 7.4. Assays were performed at 25°C without stirring in sealed black-wall clear-bottom 96-well nonbinding surface plates with 100 μL/well. Final peptide concentrations were 12.5 and 25 μM, and thioflavin T (ThT) concentration was fixed at 40 μM. Fluorescence was measured every 10 min (excitation: 440 nm, emission: 485 nm) and data from triplicate wells were averaged, corrected by subtracting the blank control, and plotted as ThT fluorescence vs. time. Data were normalized with maximum ThT fluorescence intensity obtained for unmodified IAPP. Data were fitted to a sigmoidal Boltzmann model: Y=Yo+(Ymax−Yo)/1+e^−(T−T50)/ K where T 50 is the time required to reach half of the maximum fluorescence intensity, k is the apparent first-order constant, and Y max and Y 0 are the maximum and initial ThT fluorescence values. Lag time corresponds to T50 - 2/k. Data of at least six assays performed with different peptide lots were averaged and expressed as the mean ± S.D. Statistical analysis was performed using Student’s t test, and statistically significant difference between IAPP and analogs was established at (*) p < 0.05; (**) p < 0.005; (***) p < 0.0005.

[2] = Peptide self-assembly under fully quiescent conditions (CD, ThT and ANS fluorescence, TEM, AFM); type: physicochemical; details: 50 μM peptide; for Assemblies observed by TEM after 48 h incubation: negative stain TEM; for ThT fluorescence of incubated peptide, in words: diluted to 25 μM with 40 μM ThT; for Incubation time at which the random coil to β-sheet conformational transition is seen (far-UV CD) / Secondary conformation / conformational transition over incubation (far-UV CD), in words: fully quiescent; for Incubation time at which the random coil to β-sheet conformational transition is seen (far-UV CD): microtubes, diluted to 25 μM for CD; for Secondary conformation / conformational transition over incubation (far-UV CD), in words: up to 7 days
Protocol: Solutions were prepared by dissolving the peptide at a concentration of 50 μM in 20 mM Tris-HCl, pH 7.4, and were incubated at room temperature without agitation in 1.5 ml Eppendorf microtubes. For IAPP12-17, the lyophilized peptide was dissolved in 20 mM acetate pH 6.5 in the presence of 3% DMSO, or HFIP, at a final concentration of 500 μM and the peptide solution was incubated at 37 °C under constant rotational agitation.
At the indicating time of incubation, peptide solutions were diluted to 25 μM in presence of 40 μM ThT, or 25 μM 8-anilino-1-naphthalenesulfonic acid (ANS). Fluorescence was measured in 10-mm pathlength microcells using a PTI QuantaMaster spectrofluorometer. For ThT, excitation was set at 440 nm, and the emission spectrum from 450 to 550 nm was recorded. For ANS, the excitation was set at 355 nm, and the emission scan was recorded from 385 to 585 nm.
After incubation, peptide solutions were diluted in water to 25 μM and incorporated into a 2-mm path length quartz cell. For IAPP12-17, the solution was diluted to 150 μM. Far-UV CD spectra were recorded from 190 to 260 nm using a Jasco J-815 CD spectropolarimeter at 25°C. The wavelength step was set at 0.5 nm with an average time of 10 s per scan at each wavelength. Spectra were background-subtracted with buffer solution. Raw data were converted to mean residue ellipticity (MRE): MRE=Mean residue weight (g/mol)X CD signal (deg)/10 X pathlength (cm) X peptide concentration (g/mL)
After incubation, peptide solutions were diluted to 10 μM, or 100 μΜ for IAPP12-17, before being applied on glow-discharged carbon films on 300-mesh copper grids. Samples were adsorbed and negatively stained with 1.5% uranyl formate for 45 s. Images were recorded using a FEI Tecnai G2 Spirit Twin microscope operating at 120 kV and equipped with a Gatan Ultrascan scan 4,000 4k × 4k CCD camera system.
After incubation, peptide solutions were diluted in 1% acetic acid to a concentration of 7.5 μΜ. […] Images were recorded using Veeco/Bruker multimode AFM instrument using ScanAsyst-air mode with a silicon tip (2–12 nm tip radius, 0.4 N/m force) on a nitride lever. Images were taken at 0.977 Hz and 512 scan/min.

[3] = Lipid membrane leakage (calcein-loaded LUVs); details: 25 μM peptide, 500 μM phospholipids; for Maximum membrane leakage (calcein fluorescence, % of that with Triton X-100): LUVs DOPC:DOPG 9:1, 20 mM Tris-HCl, 150 mM NaCl, pH 7.4, read every 10 min over 24 h, IAPP value reached after 10 h, at least four assays
Protocol: Large unilamellar vesicles (LUVs) were assembled from 1,2-Dioleoyl-sn-glycero-3-phosphocholine (DOPC) and 2-dioleoyl-sn-glycero-3-phospho-(1′-rac-glycerol) (DOPG) at a 9:1 M ratio (DOPC:DOPG). Lipids were solubilized in 100% chloroform, which was then evaporated. […] The lipid mixture was freeze-thawed five times before being extruded through a 100 nm membrane for 20 cycles. Nonencapsulated calcein was removed by gel filtration using a Sephadex G25 fine resin and 20 mM Tris-HCl, 150 mM NaCl, pH 7.4, as elution buffer. Final lipid concentration was determined by a colorimetric assay ([Babych et al., 2021]). Lyophilized peptides were solubilized in 20 mM Tris-HCl, 150 mM NaCl, pH 7.4, at 50 μM prior to dilution into calcein-LUVs, to reach 25 μM peptide and 500 μM phospholipids. Fluorescence was monitored in sealed black-wall, clear-bottom 96-well non-binding surface plates with 100 μL/well. […] 100% leakage (Fmax) was determined with 0.2% Triton X-100 and LUV leakage was reported using:
Membrane leakage (%) = (F−F baseline)/(F max−F baseline)
Data of at least four assays with different peptide lots were averaged and expressed as the mean ± S.D. Statistical analysis was performed using Student’s t test, and statistically significant difference was established at (*) p < 0.05; (**) p < 0.005; (***) p < 0.0005.

INS-1E cells [4] = experiment: Cell viability by resazurin reduction; type: cell-based, Rat; details: 24 h, at least five assays; for Cell viability: 50 μM freshly dissolved peptide, relative to vehicle-treated cells; for Cytotoxicity compared with unmodified IAPP, in words: freshly dissolved peptide up to 50 μM
Protocol: (§1) Rat INS-1E cells were cultured in treated black-wall clear-bottom 96-well plates at a density of 25,000 cell/well in RPMI-1640 medium supplemented with 10% FBS, 2 mM L-glutamine, 100 U/ml penicillin, 100 μg/ml streptomycin, 10 mM HEPES, 1 mM sodium pyruvate and 50 μM β-mercaptoethanol. After 48 h of incubation at 37°C in 5% CO2, cells were treated with 50 μL of peptide freshly dissolved in 20 mM Tris-HCl, pH 7.4. […] Cell viability (%) was calculated from the ratio of the fluorescence of the treated cells to the vehicle-treated cells. Data of at least five assays performed with different peptide lots were averaged and expressed as the mean ± S.D. Statistical analysis was performed using Student’s t test, and statistically significant difference was established at (*) p < 0.05; (**) p < 0.005; (***) p < 0.0005. For Live/Dead viability assay, cells were plated in 12-well plates at density of 250,000 cell/well for 48 h before treatment with 25 μM peptide.

INS-1E cells [5] = experiment: Live/Dead viability assay (calcein-AM / ethidium homodimer-1, fluorescence microscopy); type: cell-based, Rat; details: 25 μM freshly solubilized peptide, 24 h, calcein-AM (green, live) and ethidium homodimer-1 (red, dead)
Protocol: as §1

[6] = 20 mM Tris-HCl pH 7.4, quiescent
[7] = 20 mM Tris-HCl pH 7.4, room temperature

Compound	Lag time of amyloid formation [1]	Assemblies observed by TEM after 48 h incubation [2, 6]	ThT fluorescence of incubated peptide, in words [2, 6]	Incubation time at which the random coil to β-sheet conformational transition is seen (far-UV CD) [2, 7]	Maximum membrane leakage (calcein fluorescence, % of that with Triton X-100) [3]	Incubation time at which membrane leakage starts ([3]; LUVs DOPC:DOPG 9:1, pH 7.4)	Cell viability (INS-1E cells [4])	Cytotoxicity compared with unmodified IAPP, in words (INS-1E cells [4])	Cell death in Live/Dead assay, in words (INS-1E cells [5])	ANS fluorescence of incubated peptide, in words ([2]; 20 mM Tris-HCl pH 7.4, quiescent, diluted to 25 μM with 25 μM ANS)	Secondary conformation / conformational transition over incubation (far-UV CD), in words [2, 7]	Assemblies observed by AFM after 24 h incubation ([2]; 20 mM Tris-HCl pH 7.4, room temperature, no agitation, 24 h)
CC[C@H](C)[C@H](NC(=O)[C@H](C)NC(=O)CNC(=O)[C@H](Cc1ccccc1)NC(=O)[C@H](CC(N)=O)NC(=O)[C@H](CC(N)=O)NC(=O)[C@H](CO)NC(=O)[C@H](CO)NC(=O)[C@H](Cc1c[nH]cn1)NC(=O)[C@@H](NC(=O)[C@H](CC(C)C)NC(=O)[C@H](Cc1ccccc1)NC(=O)[C@H](CC(N)=O)NC(=O)[C@H](C)NC(=O)[C@H](CC(C)C)NC(=O)[C@H](CCCNC(=N)N)NC(=O)[C@H](CCC(N)=O)NC(=O)[C@@H](NC(=O)[C@H](C)NC(=O)[C@@H]1CSSC[C@H](NC(=O)[C@@H](N)CCCCN)C(=O)N[C@@H](CC(N)=O)C(=O)N[C@@H]([C@@H](C)O)C(=O)N[C@@H](C)C(=O)N[C@@H]([C@@H](C)O)C(=O)N1)[C@@H](C)O)C(C)C)C(=O)N[C@@H](CC(C)C)C(=O)N[C@@H](CO)C(=O)N[C@@H](CO)C(=O)N[C@H](C(=O)N[C@@H](CC(N)=O)C(=O)N[C@H](C(=O)NCC(=O)N[C@@H](CO)C(=O)N[C@@H](CC(N)=O)C(=O)N[C@H](C(=O)N[C@@H](Cc1ccc(O)cc1)C(N)=O)[C@@H](C)O)C(C)C)[C@@H](C)O [IAPP, islet amyloid polypeptide]	3.9 ± 1.2 h	prototypical fibrils	increase of ThT and ANS fluorescence	24 h	17%	5 h	less than 10%	concentration-dependent decrease of metabolic activity	sharp increase in the number of red cells and a decrease of green cells			
CC[C@H](C)[C@H](NC(=O)[C@H](C)NC(=O)CNC(=O)[C@H](Cc1ccccc1)NC(=O)[C@H](CC(N)=O)NC(=O)[C@H](CC(N)=O)NC(=O)[C@H](CO)NC(=O)[C@H](CO)NC(=O)[C@H](Cc1c[nH]cn1)NC(=O)[C@@H](NC(=O)[C@H](CC(C)C)NC(=O)[C@H](Cc1ccccc1)NC(=O)[C@H](C)NC(=O)[C@H](C)NC(=O)[C@H](CC(C)C)NC(=O)[C@H](CCCNC(=N)N)NC(=O)[C@H](CCC(N)=O)NC(=O)[C@@H](NC(=O)[C@H](C)NC(=O)[C@@H]1CSSC[C@H](NC(=O)[C@@H](N)CCCCN)C(=O)N[C@@H](CC(N)=O)C(=O)N[C@@H]([C@@H](C)O)C(=O)N[C@@H](C)C(=O)N[C@@H]([C@@H](C)O)C(=O)N1)[C@@H](C)O)C(C)C)C(=O)N[C@@H](CC(C)C)C(=O)N[C@@H](CO)C(=O)N[C@@H](CO)C(=O)N[C@H](C(=O)N[C@@H](CC(N)=O)C(=O)N[C@H](C(=O)NCC(=O)N[C@@H](CO)C(=O)N[C@@H](CC(N)=O)C(=O)N[C@H](C(=O)N[C@@H](Cc1ccc(O)cc1)C(N)=O)[C@@H](C)O)C(C)C)[C@@H](C)O [N14A]		dense network of thin fibrils	low ThT fluorescence	48 h	50%		50%	reduced IAPP toxicity	decreased toxicity compared to unmodified IAPP	high ANS signal	helical-like conformation with two minima at 206 and 222 nm between 2 and 24 h incubation	only poorly defined fibrils
V17A: full-length IAPP with Val17 substituted by Ala (KCNTATCATQRLANFLAHSSNNFGAILSSTNVGSNTY; disulfide 2-7; ends not checked; UniProt P10997 34-70, looked up, variant V17A)		short and poorly defined fibrils	low ThT and ANS binding properties		34%			reduced IAPP toxicity	decreased toxicity compared to unmodified IAPP		delayed the conformational transition	

— PMC9573943, “Contribution of the 12–17 hydrophobic region of islet amyloid polypeptide in self-assembly and cytotoxicity” (Frontiers in Molecular Biosciences, 2022)
